In the supplement of paper PMC10331698:
± gives the standard deviation of the averaged measurements.

Columns and labels:
Assay in all cases: level (log10 ratio to DMSO vehicle control); higher = higher biomarker level / cell amount than vehicle control
Settings in all cases: in DMSO
[1] = compound: OCC(F)(F)C(F)(F)C(F)(F)C(F)(F)C(F)(F)C(F)F [1H,1H,7H-Dodecafluoro-1-heptanol]
Method: (§1)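 BioMAP Diversity Plus panel of 12 human primary cell co-culture systems (3C, 4H, LPS, SAg, BT, BF4T, BE3C, CASM3C, HDF3CGF, KF3CT, MyoF, Mphg). Compounds were added 1 h before stimulation and left for 24 h (MyoF 48 h; BT 72 h for soluble read-outs or 6 d for IgG). Biomarkers were read by ELISA, cytotoxicity by SRB, PBMC viability and proliferation by Alamar Blue. Each well value was divided by the mean of 8 DMSO control wells on the same plate and log10 transformed; duplicate blinded samples were tested at 4 concentrations.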

[2] = compound: CC(C)(C)C(=O)CC(=O)C(F)(F)C(F)(F)C(F)(F)F [(Heptafluorobutanoyl)pivaloylmethane]
Method: as §1

[3] = compound: CNS(=O)(=O)C(F)(F)C(F)(F)C(F)(F)C(F)(F)C(F)(F)C(F)(F)C(F)(F)C(F)(F)F [N-Methylperfluorooctanesulfonamide]
Method: as §1

[4] = compound: O=C(O)C(F)(F)C(F)(F)C(F)(F)C(F)(F)C(F)(F)C(F)(F)C(F)(F)C(F)(F)C(F)(F)C(F)(F)C(F)(F)C(F)(F)F [Perfluorotridecanoic acid]
Method: as §1

[5] = compound: O=C(O)C(F)(F)OC(F)(F)C(F)(F)OC(F)(F)C(F)(F)C(F)(F)C(F)(F)F [Perfluoro-3,6-dioxadecanoic acid]
Method: as §1

Perfluorooctanamide = compound: NC(=O)C(F)(F)C(F)(F)C(F)(F)C(F)(F)C(F)(F)C(F)(F)C(F)(F)F [Perfluorooctanamide]
Method: as §1

| Test System | level (log10) ([1]; 6700 nM) | level (log10) ([1]; 20000 nM) | level (log10) ([1]; 60000 nM) | level (log10) ([2]; 6700 nM) | level (log10) ([2]; 20000 nM) | level (log10) ([2]; 60000 nM) | level (log10) ([3]; 6700 nM) | level (log10) ([3]; 20000 nM) | level (log10) ([3]; 60000 nM) | level (log10) ([4]; 1500 nM) | level (log10) ([4]; 4400 nM) | level (log10) ([4]; 13000 nM) | level (log10) ([4]; 40000 nM) | level (log10) ([5]; 6700 nM) | level (log10) ([5]; 20000 nM) | level (log10) ([5]; 60000 nM) | level (log10) (Perfluorooctanamide; 6700 nM) | level (log10) (Perfluorooctanamide; 20000 nM) | level (log10) (Perfluorooctanamide; 60000 nM) |
| --- | --- | --- | --- | --- | --- | --- | --- | --- | --- | --- | --- | --- | --- | --- | --- | --- | --- | --- | --- |
| BT:sIL-17F | -0.104 ± 0.2 | -0.0695 ± 0.07 | -0.061 ± 0.064 | -0.069 ± 0.082 | -0.0005 ± 0.036 | -0.119 ± 0.1 | 0.016 ± 0.18 | 0.066 ± 0.56 | -0.385 ± 0.26 | -0.0115 ± 0.1 | -0.02 ± 0.048 | 0.0775 ± 0.067 | 0.004 ± 0.09 | -0.016 ± 0.055 | -0.0335 ± 0.12 | -0.021 ± 0.1 | 0.0205 ± 0.0064 | -0.0165 ± 0.035 | -0.0955 ± 0.1 |
| BT:sTNF-alpha | -0.01 ± 0.31 | 0.0815 ± 0.039 | -0.0155 ± 0.15 | -0.075 ± 0.064 | -0.0605 ± 0.016 | 0.0315 ± 0.18 | -0.017 ± 0.055 | 0.0015 ± 0.022 | -0.0905 ± 0.29 | 0.0475 ± 0.064 | 0.0075 ± 0.033 | -0.054 ± 0.096 | -0.05 ± 0.067 | 0.0675 ± 0.086 | 0.0875 ± 0.08 | -0.046 ± 0.051 | -0.0175 ± 0.011 | 0.0215 ± 0.056 | -0.129 ± 0.095 |
| LPS:CCL2/MCP-1 | 0.002 ± 0.0014 | -0.0125 ± 0.0078 | -0.0005 ± 0.018 | -0.01 ± 0.0014 | -0.0055 ± 0.018 | 0.001 ± 0.038 | -0.0135 ± 0.0035 | 0.0125 ± 0.0021 | 0.006 ± 0.021 | 0.005 ± 0.071 | 0.0315 ± 0.032 | 0.0145 ± 0.0078 | 0.0155 ± 0.029 | 0.008 ± 0.0085 | 0.0005 ± 0.0078 | -0.042 ± 0.05 | -0.0295 ± 0.015 | 0.001 ± 0.0099 | -0.0765 ± 0.012 |
| LPS:CD40 | -0.0085 ± 0.03 | 0.026 ± 0.023 | -0.013 ± 0.038 | 0.0275 ± 0.066 | 0.028 ± 0.068 | 0.0515 ± 0.0021 | -0.0545 ± 0.083 | -0.0265 ± 0.023 | -0.0375 ± 0.0078 | 0.015 ± 0.092 | -0.0215 ± 0.17 | -0.032 ± 0.11 | -0.03 ± 0.092 | -0.0125 ± 0.0078 | -0.0265 ± 0.023 | -0.14 ± 0.055 | -0.034 ± 0.021 | -0.015 ± 0.0057 | -0.0265 ± 0.028 |
| LPS:CD62E/E-Selectin | 0.0045 ± 0.0064 | -0.005 ± 0.013 | -0.009 ± 0.014 | -0.0025 ± 0.005 | -0.0145 ± 0.021 | 0.004 ± 0.0042 | -0.024 ± 0.011 | 0.01 ± 0.02 | 0.03 ± 0.018 | 0.004 ± 0.02 | 0.0025 ± 0.028 | -0.002 ± 0.0085 | -0.0065 ± 0.005 | 0.008 ± 0.034 | 0.006 ± 0.04 | 0.024 ± 0.04 | -0.002 ± 0.014 | -0.001 ± 0.011 | 0.0205 ± 0.0078 |
| LPS:CD69 | -0.002 ± 0.096 | -0.0005 ± 0.076 | 0.0005 ± 0.079 | 0.0025 ± 0.026 | 0.007 | 0.063 ± 0.018 | -0.068 ± 0.016 | -0.0725 ± 0.0092 | -0.0725 ± 0.0035 | 0.002 ± 0.034 | -0.0545 ± 0.053 | -0.0455 ± 0.044 | -0.069 ± 0.025 | -0.009 ± 0.0099 | -0.0425 ± 0.026 | -0.191 ± 0.088 | -0.0115 ± 0.086 | 0.0295 ± 0.036 | 0.0385 ± 0.029 |
| LPS:CD106/VCAM-1 | 0 ± 0.0042 | -0.0075 ± 0.00071 | -0.0065 ± 0.019 | -0.0315 ± 0.047 | -0.042 ± 0.017 | -0.021 ± 0.034 | -0.013 ± 0.038 | 0.0295 ± 0.018 | 0.03 ± 0.027 | -0.004 ± 0.0014 | -0.0315 ± 0.054 | -0.029 ± 0.052 | -0.08 ± 0.0057 | 0.002 ± 0.037 | -0.0175 ± 0.035 | -0.092 ± 0.014 | -0.0025 ± 0.012 | 0.006 ± 0.0028 | 0.0245 ± 0.00071 |
| LPS:CD141/Thrombomodulin | 0.001 ± 0.028 | 0.0005 ± 0.037 | 0.0005 ± 0.042 | -0.013 ± 0.037 | -0.0095 ± 0.042 | 0.0325 ± 0.0021 | 0.005 ± 0.0028 | 0.0475 ± 0.0092 | 0.056 ± 0.0014 | 0.045 ± 0.016 | 0.0125 ± 0.0092 | 0.0335 ± 0.0035 | -0.001 ± 0.016 | 0.0245 ± 0.025 | 0.001 ± 0.04 | -0.0235 ± 0.0078 | -0.016 ± 0.03 | -0.0075 ± 0.0064 | -0.0155 ± 0.037 |
| LPS:CD142/Tissue Factor | -0.008 ± 0.0014 | -0.0175 ± 0.015 | 0.0065 ± 0.025 | 0.0055 ± 0.012 | 0.0385 ± 0.018 | 0.034 ± 0.0057 | -0.0275 ± 0.016 | -0.0395 ± 0.016 | -0.074 ± 0.018 | 0.0325 ± 0.08 | -0.026 ± 0.058 | 0.0025 ± 0.069 | 0.0325 ± 0.019 | 0.031 ± 0.054 | -0.029 ± 0.03 | -0.0375 ± 0.083 | -0.0585 ± 0.0092 | 0.0025 ± 0.032 | -0.002 ± 0.0042 |
| LPS:CXCL8/IL-8 | 0.0055 ± 0.029 | 0.0005 ± 0.022 | 0.0025 ± 0.011 | -0.019 ± 0.0099 | 0.015 ± 0.0057 | 0.0265 ± 0.013 | -0.007 ± 0.0085 | -0.003 ± 0.016 | -0.0025 ± 0.019 | -0.011 ± 0.041 | -0.058 ± 0.041 | -0.0065 ± 0.042 | 0.016 ± 0.11 | -0.0175 ± 0.0092 | -0.0145 ± 0.013 | 0.018 ± 0.02 | -0.012 ± 0.024 | -0.049 ± 0.023 | -0.0335 ± 0.021 |
| LPS:IL-1alpha | -0.006 ± 0.0042 | -0.031 ± 0.02 | 0.0025 ± 0.046 | 0.0285 ± 0.00071 | 0.0365 ± 0.0021 | 0.0745 ± 0.026 | 0.0405 ± 0.071 | 0.107 ± 0.067 | 0.124 ± 0.078 | 0.0655 ± 0.088 | -0.0155 ± 0.06 | 0.0405 ± 0.042 | 0.0445 ± 0.018 | -0.008 ± 0.0085 | -0.0225 ± 0.03 | -0.04 ± 0.013 | -0.032 ± 0.033 | -0.003 ± 0.047 | -0.0395 ± 0.0092 |
| LPS:M-CSF | 0.0025 ± 0.00071 | 0.0075 ± 0.0035 | 0.01 ± 0.038 | -0.004 ± 0.018 | 0 ± 0.0085 | -0.0125 ± 0.052 | -0.038 ± 0.018 | -0.0125 ± 0.011 | -0.017 ± 0.013 | -0.006 ± 0.042 | -0.017 ± 0.047 | -0.0135 ± 0.019 | -0.568 ± 0.03 | 0.006 ± 0.018 | -0.0115 ± 0.03 | -0.013 ± 0.0057 | -0.0005 ± 0.022 | -0.0205 ± 0.013 | -0.067 ± 0.0085 |
| LPS:SRB | -0.008 ± 0.0014 | -0.006 ± 0.0042 | -0.0015 ± 0.015 | -0.006 | -0.0095 ± 0.0021 | -0.028 ± 0.0099 | -0.0005 ± 0.00071 | -0.03 ± 0.0042 | -0.0625 ± 0.039 | -0.003 ± 0.014 | -0.011 ± 0.0014 | -0.008 ± 0.011 | 0.006 ± 0.021 | -0.01 ± 0.014 | -0.0025 ± 0.005 | -0.105 ± 0.069 | 0.006 ± 0.013 | 0.001 ± 0.0099 | -0.0015 ± 0.011 |
| LPS:sPGE2 | -0.0455 ± 0.066 | -0.0115 ± 0.016 | -0.011 ± 0.0057 | 0.058 ± 0.013 | 0.04 ± 0.018 | 0.181 ± 0.023 | -0.011 ± 0.0028 | 0.038 ± 0.0028 | 0.0305 ± 0.032 | 0.0325 ± 0.016 | 0.0275 ± 0.049 | -0.052 ± 0.034 | -0.022 ± 0.061 | -0.105 ± 0.011 | -0.161 ± 0.0078 | -0.248 ± 0.03 | 0.019 ± 0.035 | 0.0225 ± 0.025 | 0.0545 ± 0.036 |
